Data taken from patent publication US20230009626A1 (ICHNOS SCIENCES S.A., priority 2018, published 2023).
Where a name gives a salt, the structure may show the parent alone.

Target: HPK1 (MAP4K1) (Homo sapiens, UniProt Q92918)
Assay: FRET Assay for HPK1 (MAP4K1): one step binding assay, displacement of labeled tracer
Details: for inhibition at 1 µM: 1 μM compound; for inhibition at 1 µM / inhibition at 10 µM: FRET ratio 665/620, percent of control; for inhibition at 10 µM: 10 μM compound; for IC50: dose response curve, nonlinear regression
From the text: FRET Assay for HPK1 (MAP4K1):
This is a one step binding assay based on the binding and displacement of the labeled tracer, where compound addition is followed by addition of the anti-GST tagged europium (Eu) as the donor and Alexa Fluor-labeled tracer as the acceptor. Simultaneous binding of both the tracer and GST-antibody to the kinase domain of HPK1 results in a high degree of FRET (fluorescence resonance energy transfer) from the anti-GST tagged europium (Eu) fluorophore to the Alexa Fluor® 647 fluorophore on the kinase tracer and this signal is reduced in presence of the inhibitor that can be measured.
Test compounds or reference compounds such as Sunitinib (Sigma) were dissolved in dimethylsulfoxide (DMSO) to prepare 10.0 mM stock solutions and diluted to the desired concentration. The final concentration of DMSO in the reaction was 3% (v/v). The assay mixture was prepared by mixing 4 nM of the Eu-Anti-GST Antibody and 10 nM MAP4K-1 enzyme in the Kinase buffer containing 50mM HEPES (pH 7.5), 10 mM MgCl2, 1 mM EGTA, 0.01% Brij-35 with or without the desired concentration of the compound. The reaction was incubated on ice for 15 mins. The pre-incubation step was followed by addition of the 20 nM Kinase Tracer 222 into the reaction mixture. After shaking for 5 min the reaction was further incubated for 1 hour at room temperature and this was kept at 4° C. and read on ARTEMIS reader as per the kit instructions (Thermo). […] The activity was calculated as percent of control reaction. IC50 values were calculated from dose response curve by nonlinear regression analysis using GraphPad Prism software.
Percentage inhibition at concentrations of 1.0 μM and 10.0 μM are given in the table along with IC50 (nM) details for selected examples.

HPK1 (MAP4K1), sequence (Q92918 whole entry): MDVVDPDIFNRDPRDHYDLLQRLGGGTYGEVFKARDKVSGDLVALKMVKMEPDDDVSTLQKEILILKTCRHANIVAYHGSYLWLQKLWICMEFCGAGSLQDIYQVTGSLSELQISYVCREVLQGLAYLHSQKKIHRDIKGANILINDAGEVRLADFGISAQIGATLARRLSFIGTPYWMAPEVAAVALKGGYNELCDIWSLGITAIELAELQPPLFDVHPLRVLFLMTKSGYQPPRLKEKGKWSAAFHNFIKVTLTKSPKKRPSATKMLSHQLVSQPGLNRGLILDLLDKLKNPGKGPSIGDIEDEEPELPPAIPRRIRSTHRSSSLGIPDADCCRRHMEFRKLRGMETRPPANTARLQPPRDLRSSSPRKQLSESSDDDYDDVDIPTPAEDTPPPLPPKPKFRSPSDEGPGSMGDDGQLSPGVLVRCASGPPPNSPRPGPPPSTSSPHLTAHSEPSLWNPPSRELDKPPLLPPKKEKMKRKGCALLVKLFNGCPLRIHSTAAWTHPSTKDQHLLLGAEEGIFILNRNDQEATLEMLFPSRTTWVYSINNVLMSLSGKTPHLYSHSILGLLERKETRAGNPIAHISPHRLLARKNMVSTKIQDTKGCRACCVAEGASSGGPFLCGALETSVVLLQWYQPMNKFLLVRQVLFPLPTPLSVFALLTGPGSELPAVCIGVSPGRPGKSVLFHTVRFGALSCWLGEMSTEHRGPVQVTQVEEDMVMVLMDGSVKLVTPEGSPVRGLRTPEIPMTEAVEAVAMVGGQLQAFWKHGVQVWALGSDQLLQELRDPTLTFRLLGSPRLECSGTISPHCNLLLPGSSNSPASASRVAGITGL

inhibition at 1 µM [%] | inhibition at 10 µM [%] | IC50 [nM] | SMILES
87.1 | 85.4 | < 50 | C/C(Nc1cnn(C(C)(C)C#N)c1)=C1/C(=O)Nc2cnc(-c3cnccc3C)cc21 [Example 53, (Z)-2-Methyl-2-(4-((1-(5-(4-methylpyridin-3-yl)-2-oxo-1H-pyrrolo[2,3-c]pyridin-3(2H)-ylidene)ethyl)amino)-1H-pyrazol-1-yl)propanenitrile]
78 | 90 | 50 to 100 | C/C(Nc1cnn(C)c1)=C1/C(=O)Nc2cnc(-c3c(C)noc3C)cc21 [Example 55, (Z)-5-(3,5dimethylisoxazol-4-yl)-3-(1-((1-methyl-1H-pyrazol-4-yl)amino)ethylidene)-1H-pyrrolo[2,3-c]pyridin-2(3H)-one]
66.8 | 75.2 | 100 to 500 | COc1cccc(F)c1-c1cnc2c(c1)/C(=C(\C)Nc1cnn(C)c1)C(=O)N2 [Example 56, (Z)-5-(2-Fluoro-6-methoxyphenyl)-3-(1-((1-methyl-1H-pyrazol-4-yl)amino)ethylidene)-1H-pyrrolo[2,3-b]pyridin-2(3H)-one]
74 | 72.7 | < 50 | COCCn1cc(N/C(C)=C2\C(=O)Nc3cnc(-c4cnccc4C)cc32)cn1 [Example 60, (Z)-3-(1-((1-(2-Methoxyethyl)-1H-pyrazol-4-yl)amino)ethylidene)-5-(4-methylpyridin-3-yl)-1H-pyrrolo[2,3-c]pyridin-2(3H)-one]
71.6 | 81.3 | < 50 | C/C(Nc1cnn(CC(F)F)c1)=C1/C(=O)Nc2cnc(-c3cnccc3C)cc21 [Example 61, (Z)-3-(1-((1-(2,2-Difluoroethyl)-1H-pyrazol 4-yl)amino)ethylidene)-5-(4-methylpyridin-3-yl)-1H pyrrolo[2,3-c]pyridin-2(3H)-one]
80.3 | 94.7 | < 50 | C/C(Nc1cnn(C)c1)=C1/C(=O)Nc2ccc(-c3cnccc3C)nc21 [Example 62, (Z)-3-(1-((1-Methyl-1H-pyrazol-4-yl)amino)ethylidene)-5-(4-methylpyridin-3-yl)-1H-pyrrolo[3,2-b]pyridin-2(3H)-one]
83.3 | 91.2 | < 50 | C/C(Nc1cn[nH]c1)=C1/C(=O)Nc2cnc(-c3cnccc3C)cc21 [Example 64, (Z)-3-(1-((1H-Pyrazol-4-yl)amino)ethylidene)-5-(4-methylpyridin-3-yl)-1H-pyrrolo[2,3-c]pyridin-2(3H)-one]
74 | 71.4 | < 50 | C/C(Nc1cnn(CC2CC2)c1)=C1/C(=O)Nc2cnc(-c3cnccc3C)cc21 [Example 67, (Z)-3-(1-((1-(Cyclopropylmethyl)-1H-pyrazol-4-yl)amino)ethylidene)-5-(4-methylpyridin-3-yl)-1H-pyrrolo[2,3-c]pyridin-2(3H)-one]
77.5 | 75.3 | < 50 | COc1ccncc1-c1cc2c(cn1)NC(=O)/C2=C(/C)Nc1ccn(C)n1 [Example 68, (Z)-5-(4-Methoxypyridin-3-yl)-3-(1-((1-methyl-1H-pyrazol-3-yl)amino)ethylidene)-1H-pyrrolo[2,3-c]pyridin-2(3H)-one]
67 | 65.5 |  | C/C(Nc1cnn(CC(F)(F)F)c1)=C1/C(=O)Nc2cnc(-c3cnccc3C)cc21 [Example 69, (Z)-5-(4-Methylpyridin-3-yl)-3-(1-((1-(2,2,2-trifluoroethyl)-1H-pyrazol-4-yl)amino)ethylidene)-1H-pyrrolo[2,3-c]pyridin-2(3H)-one]
76.3 |  | < 50 | C/C(Nc1ccc(N2CCNCC2)cn1)=C1/C(=O)Nc2cnc(-c3cnccc3C)cc21 [Example 74, (Z)-5-(4-Methylpyridin-3-yl)-3-(1-((5-(piperazin-1-yl)pyridin-2-yl)amino)ethylidene)-1H-pyrrolo[2,3-c]pyridin-2(3H)-one]

More lines, now with the values behind:

SMILES | inhibition at 1 µM [%] | inhibition at 10 µM [%] | IC50 [nM]
C/C(Nc1ccn(C)n1)=C1/C(=O)Nc2cnc(-c3cnccc3C)cc21 [Example 54, (Z)-3-(1-((1-methyl-1H-pyrazol-3-yl)amino)ethylidene)-5-(4-methylpyridin-3-yl)-1H-pyrrolo[2,3-c]pyridin-2(3H)-one] | 88.5 | 86.1 | < 50
C/C(Nc1cnn(C2CCOCC2)c1)=C1/C(=O)Nc2cnc(-c3cnccc3C)cc21 [Example 57, (Z)-5-(4-Methylpyridin-3-yl)-3-(1-((1-(tetrahydro-2H-pyran-4-yl)-1H-pyrazol-4-yl)amino)ethylidene)-1H-pyrrolo[2,3-c]pyridin-2(3H)-one] | 80.9 | 94.1 | < 50
C/C(Nc1ccc(N2CCNCC2)cc1)=C1/C(=O)Nc2cnc(-c3cnccc3C)cc21 [Example 58, (Z)-5-(4-Methylpyridin-3-yl)-3-(1-((4-(piperazin-1-yl)phenyl)amino)ethylidene)-1H-pyrrolo[2,3-c]pyridin-2(3H)-one] | 71 | 72.7 | < 50
C/C(Nc1ccc(N2CCOCC2)cc1)=C1/C(=O)Nc2cnc(-c3cnccc3C)cc21 [Example 59, (Z)-5-(4-Methylpyridin-3-yl)-3-(1-((4-morpholinophenyl)amino)ethylidene)-1H-pyrrolo[2,3-c]pyridin-2(3H)-one] | 78 | 78.2 | < 50
C/C(Nc1ccn(C)n1)=C1/C(=O)Nc2ccc(-c3cnccc3C)nc21 [Example 63, (Z)-3-(1-((1-Methyl-1H-pyrazol-34yl)amino)ethylidene)-5-(4-methylpyridin-3-yl)-1H-pyrrolo[3,2-b]pyridin-2(3H)-one] | 89.8 | 97.1 | < 50
COc1cccc(F)c1-c1cc2c(cn1)NC(=O)/C2=C(/C)Nc1cnn(C(F)F)c1 [Example 65, (Z)-3-(1-((1-(Difluoromethyl)-1H-pyrazol-4-yl)amino)ethylidene)-5-(2-fluoro-6-methoxyphenyl)-1H-pyrrolo[2,3-c]pyridin-2(3H)-one] | 79.7 | 75.5 | 50 to 100
C/C(Nc1cnn(C(F)F)c1)=C1/C(=O)Nc2cnc(-c3cnccc3C)cc21 [Example 66, (Z)-3-(1-((1-(Difluoromethyl)-1H-pyrazol-4-yl)amino)ethylidene)-5-(4-methylpyridin-3-yl)-1H-pyrrolo[2,3-c]pyridin-2(3H)-one] | 74.1 | 76.2 | < 50
CC(=O)N1CCN(c2ccc(N/C(C)=C3\C(=O)Nc4cnc(-c5cnccc5C)cc43)cn2)CC1 [Example 70, (Z)-3-(1-((6-(4-Acetylpiperazin-1-yl)pyridin-3-yl)amino)ethylidene)-5-(4-methylpyridin-3-yl)-1H-pyrrolo[2,3-c]pyridin-2(3H)-one] | 69.5 | 69.9 | 
COc1cccc(F)c1-c1cc2c(cc1C#N)NC(=O)/C2=C(/C)Nc1cnn(C)c1 [Example 71, (Z)-5-(2-Fluoro-6-methoxyphenyl)-3-(1-((1-methyl-1H-pyrazol-4-yl)amino)ethylidene)-2-oxoindoline-6-carbonitrile] | 71.7 | 72.7 | < 50
COc1cccc(F)c1-c1cc2c(cn1)NC(=O)/C2=C(/C)NC1CCNCC1 [Example 72, (Z)-5-(2-Fluoro-6-methoxyphenyl)-3-(1-(piperidin-4-ylamino)ethylidene)-1H-pyrrolo[2,3-c]pyridin-2(3H)-one trihydrochloride] | 39.8 | 68.6 | 
CCn1ccc(N/C(C)=C2\C(=O)Nc3cnc(-c4cnccc4C)cc32)n1 [Example 73, (Z)-3-(1-((1-Ethyl-1H-pyrazol-3-yl)amino)ethylidene)-5-(4-methylpyridin-3-yl)-1H-pyrrolo[2,3-c]pyridin-2(3H)-one] | 69.6 | 63.9 | < 50
CNC(=O)c1cc(N/C(C)=C2\C(=O)Nc3cnc(-c4cnccc4C)cc32)nn1C [Example 75, (Z)-N,1-Dimethyl-3-((1-(5-(4-methylpyridin-3-yl)-2-oxo-1H-pyrrolo[2,3-c]pyridin-3(2H)-ylidene)ethyl)amino)-1H-pyrazole-5-carboxamide] | 71 | 74 | < 50
C/C(Nc1ccn(C2COC2)n1)=C1/C(=O)Nc2cnc(-c3cnccc3C)cc21 [Example 76, (Z)-5-(4-Methylpyridin-3-yl)-3-(1-((1-(oxctan-3-yl)-1H-pyrazol-3-yl)amino)ethylidene)-1H-pyrrolo[2,3-c]pyridin-2(3H)-one] | 70.3 | 69 | < 50
